These compounds were tested against T1, α5β3γ2 GABAA receptors (Ltk cell membranes) (Homo sapiens, UniProt P18507+P31644) (assay: Binding activity of test compounds on GABAAR: inhibition of [3H]Ro15-1788 binding). Details: not given.
T1 construct: membranes
Summary of the method: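 Membranes from dexamethasone-induced Ltk cells (α5 line: 0.5 μM, 1 day); binding with [3H]Ro15-1788 for 1 h at 4 °C in 50 mM KH2PO4, 1 mM EDTA, 0.2 M KCl, pH 7.4, 0.2 mg/ml α5 protein. Nonspecific binding defined by 10 μM diazepam; filtration, scintillation counting, triplicates.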

T1 sequence (P31644 32-462): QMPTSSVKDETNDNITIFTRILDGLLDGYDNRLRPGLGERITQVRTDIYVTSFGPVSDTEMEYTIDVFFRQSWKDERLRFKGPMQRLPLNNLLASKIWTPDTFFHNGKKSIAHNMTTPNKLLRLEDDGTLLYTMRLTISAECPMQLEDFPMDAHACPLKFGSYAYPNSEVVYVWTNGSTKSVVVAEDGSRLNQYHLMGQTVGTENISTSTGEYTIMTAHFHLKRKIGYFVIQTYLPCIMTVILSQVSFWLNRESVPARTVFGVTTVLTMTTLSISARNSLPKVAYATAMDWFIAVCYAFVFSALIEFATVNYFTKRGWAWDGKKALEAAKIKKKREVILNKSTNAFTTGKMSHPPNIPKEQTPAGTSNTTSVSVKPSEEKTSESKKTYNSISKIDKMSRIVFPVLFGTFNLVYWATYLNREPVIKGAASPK
T1 sequence (P28472 26-473 partner): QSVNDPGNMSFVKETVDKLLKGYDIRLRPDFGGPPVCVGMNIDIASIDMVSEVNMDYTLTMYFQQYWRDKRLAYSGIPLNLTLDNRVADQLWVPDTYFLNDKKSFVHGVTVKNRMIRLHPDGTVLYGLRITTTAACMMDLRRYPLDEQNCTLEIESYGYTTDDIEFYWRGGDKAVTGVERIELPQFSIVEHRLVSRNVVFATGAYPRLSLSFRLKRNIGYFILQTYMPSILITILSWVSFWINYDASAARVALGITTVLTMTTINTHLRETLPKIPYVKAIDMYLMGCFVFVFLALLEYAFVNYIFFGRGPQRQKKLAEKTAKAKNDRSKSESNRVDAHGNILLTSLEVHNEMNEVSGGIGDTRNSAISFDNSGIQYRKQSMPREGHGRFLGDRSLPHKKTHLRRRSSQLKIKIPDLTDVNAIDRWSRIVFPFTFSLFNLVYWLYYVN
T1 sequence (P18507 40-475): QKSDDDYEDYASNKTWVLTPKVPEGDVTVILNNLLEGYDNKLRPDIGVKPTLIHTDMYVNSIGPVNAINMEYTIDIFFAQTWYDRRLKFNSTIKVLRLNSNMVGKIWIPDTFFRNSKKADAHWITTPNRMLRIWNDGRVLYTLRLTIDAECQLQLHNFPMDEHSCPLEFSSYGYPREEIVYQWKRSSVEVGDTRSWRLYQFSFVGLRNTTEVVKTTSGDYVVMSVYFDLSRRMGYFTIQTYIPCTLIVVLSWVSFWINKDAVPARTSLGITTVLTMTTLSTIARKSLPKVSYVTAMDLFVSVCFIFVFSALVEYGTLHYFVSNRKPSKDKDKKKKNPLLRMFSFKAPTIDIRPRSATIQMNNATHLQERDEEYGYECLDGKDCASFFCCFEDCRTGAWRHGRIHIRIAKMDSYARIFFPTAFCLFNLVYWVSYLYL

`CC(C)OCc1nnc2n1Cc1c(/C=C/c3ccc(F)cc3)ncn1-c1ccc(Cl)cc1-2` [Compound 447] and `CC(C)OCc1nnc2n1Cc1c(/C=C/c3ccccc3)ncn1-c1ccc(Cl)cc1-2` [Compound 446] cannot be ordered by Ki: greater than 1 µM for the first, greater than 1 µM for the second.

Compound `CCC(=O)c1ncn2c1Cn1c(COc3ccccc3)nnc1-c1cc(OC)ccc1-2` [Compound 123] has a Ki greater than 1 µM.

Same assay, conditions: GABA α5 Binding Ki Values, inhibition of [3H]Ro15-1788 binding; reported as ranges

First: COc1ccc2c(c1)-n1nncc1Cc1c(C3=N[C@@H](c4cccc(C(F)(F)F)c4)CO3)ncn1-2 [Compound 371]
Second: COc1ccc2c(c1)-n1nncc1Cc1c(C3=N[C@@H](c4ccccc4)CO3)ncn1-2 [Compound 289]
The Ki of the first is higher: 0.1 to 1 µM for the first, less than 0.1 µM for the second.

Going from `Cc1nnn2c1Cc1c(C(=O)OC(C)C)ncn1-c1ccccc1-2` [Compound 153] to `Cc1nnn2c1Cc1c(C(N)=O)ncn1-c1ccccc1-2` [Compound 117], the Ki rises from less than 0.1 µM to greater than 1 µM.

`Cc1nnn2c1Cc1c(-c3noc(C(C)C)n3)ncn1-c1ccccc1-2` [Compound 133] and `Cc1nc(-c2ncn3c2Cc2c(C)nnn2-c2cc(F)ccc2-3)no1` [Compound 145] cannot be ordered by Ki: less than 0.1 µM for the first, less than 0.1 µM for the second.

`C#Cc1ccc2c(c1)-c1nnc(COC)n1Cc1c(-c3nc(-c4ccccc4)co3)ncn1-2` [Compound 302] and `COCc1nnc2n1Cc1c(-c3nc(-c4ccccc4)co3)ncn1-c1ccc(Cl)cc1-2` [Compound 245] cannot be ordered by Ki: less than 0.1 µM for the first, less than 0.1 µM for the second.

Going from `COc1ccc2c(c1)-n1nnc(CN3CCCC3)c1Cc1c(C#N)ncn1-2` [Compound 250] to `CCOC(=O)c1ncn2c1Cc1c(CN3CCCC3)nnn1-c1cc(OC)ccc1-2` [Compound 48], the Ki falls from greater than 1 µM to less than 0.1 µM.

`C#Cc1ncn2c1Cn1c(COC)nnc1-c1cc(OC)ccc1-2` [Compound 328, 5-ethynyl-15-methoxy-9-(methoxymethyl)-2,4,8,10,11-pentaazatetracyclo[11.4.0.0^2,^6.0^8,^12]heptadeca-1(17),3,5,9,11,13,15-heptaene] and `COCc1nnc2n1Cc1c(Br)ncn1-c1ccc(OC)cc1-2` [Compound 129] cannot be ordered by Ki: less than 0.1 µM for the first, less than 0.1 µM for the second.

Compared with `CCOCc1nnc2n1Cc1c(-c3cc(C)no3)ncn1-c1ccc(Cl)cc1-2` [Compound 278], `Cc1cc(-c2ncn3c2Cn2c(COC(C)C)nnc2-c2cc(Cl)ccc2-3)on1` [Compound 281] is higher in Ki: less than 0.1 µM for the first, 0.1 to 1 µM for the second.

`CCOC(=O)c1ncn2c1Cn1c(Oc3cccc(OC)c3)nnc1-c1cc(OC)ccc1-2` [Compound 105] and `CCOC(=O)c1ncn2c1Cn1c(COc3ccccc3)nnc1-c1cc(OC)ccc1-2` [Compound 55] cannot be ordered by Ki: less than 0.1 µM for the first, less than 0.1 µM for the second.

Compared with `Cc1nnn2c1Cc1c(C3=N[C@@H](c4ccccc4F)CO3)ncn1-c1ccc(Cl)cc1-2` [Compound 378], `COCc1nnc2n1Cc1c(C3=N[C@@H](c4ccccc4F)CO3)ncn1-c1ccc(Cl)cc1-2` [Compound 319] is lower in Ki: 0.1 to 1 µM for the first, less than 0.1 µM for the second.

First: COc1ccc2c(c1)-n1nnc(CN3CCCC3)c1Cc1c(-c3nc(C(C)C)no3)ncn1-2 [Compound 170]
Second: COc1ccc2c(c1)-n1nncc1Cc1c(-c3nc(C(C)C)no3)ncn1-2 [Compound 257]
The Ki of the first is higher: 0.1 to 1 µM for the first, less than 0.1 µM for the second. The second binds more tightly here.

Compared with `COc1ccc2c(c1)-n1nnc(C)c1Cc1c(-c3ncco3)ncn1-2` [Compound 347], `Clc1ccc2c(c1)-n1nncc1Cc1c(-c3ncco3)ncn1-2` [Compound 393] is lower in Ki: 0.1 to 1 µM for the first, less than 0.1 µM for the second.

Going from `COc1ccc2c(c1)-n1nnc(COc3cccc(Br)c3)c1Cc1c(C#N)ncn1-2` [Compound 225] to `COc1ccc2c(c1)-n1nnc(/C=C/c3ccccc3)c1Cc1c(C#N)ncn1-2` [Compound 262], the Ki rises from less than 0.1 µM to greater than 1 µM. The first binds more tightly here.

First: CCOCc1nnc2n1Cc1c(C3=NC(C)CO3)ncn1-c1ccc(Cl)cc1-2 (stereo not drawn) [Compound 259]
Second: COCc1nnc2n1Cc1c(C3=N[C@@H](C(C)C)CO3)ncn1-c1ccc(Cl)cc1-2 [Compound 240]
The Ki of the first is lower: less than 0.1 µM for the first, 0.1 to 1 µM for the second.

`COCc1nnc2n1Cc1c(-c3noc(C)n3)ncn1-c1ccc(Cl)cc1-2` [Compound 427] and `COCc1nnc2n1Cc1c(-c3noc(C)n3)ncn1-c1ccc(OC)cc1-2` [Compound 164] cannot be ordered by Ki: less than 0.1 µM for the first, less than 0.1 µM for the second.

`COc1ccc2c(c1)-n1nncc1Cc1c(C#CCc3ccccc3)ncn1-2` [Compound 413] and `COc1ccc2c(c1)-n1nncc1Cc1c(C#Cc3ccccc3)ncn1-2` [Compound 404] cannot be ordered by Ki: less than 0.1 µM for the first, less than 0.1 µM for the second.

`CCOCc1nnc2n1Cc1c(-c3nc(C)no3)ncn1-c1ccc(Cl)cc1-2` [Compound 255] and `COCc1nnc2n1Cc1c(-c3nc(C)no3)ncn1-c1ccc(Br)cc1-2` [Compound 461] cannot be ordered by Ki: less than 0.1 µM for the first, less than 0.1 µM for the second.

`COc1ccc2c(c1)-c1nnc(COCc3ccccc3F)n1Cc1c(-c3noc(C(C)C)n3)ncn1-2` [Compound 184] and `COc1ccc2c(c1)-c1nnc(COc3ccccc3Cl)n1Cc1c(-c3noc(C(C)C)n3)ncn1-2` [Compound 175] cannot be ordered by Ki: less than 0.1 µM for the first, less than 0.1 µM for the second.

`CC(C)c1nc(-c2ncn3c2Cn2c(COc4cccnc4)nnc2-c2cc(F)ccc2-3)no1` [Compound 185] and `Cc1cccc(C)c1OCc1nnc2n1Cc1c(-c3noc(C(C)C)n3)ncn1-c1ccc(F)cc1-2` [Compound 190] cannot be ordered by Ki: less than 0.1 µM for the first, less than 0.1 µM for the second.

`COCc1nnc2n1Cc1c(C3=N[C@H](c4ccccc4)CO3)ncn1-c1ccc(Cl)cc1-2` [Compound 263] and `COCc1nnc2n1Cc1c(C3=N[C@@H](c4cccc5ccccc45)CO3)ncn1-c1ccc(Cl)cc1-2` [Compound 338] cannot be ordered by Ki: less than 0.1 µM for the first, less than 0.1 µM for the second.

`Clc1ccc2c(c1)-c1nnc(COc3ccccc3)n1Cc1c(-c3ncco3)ncn1-2` [Compound 349] and `Clc1ccc2c(c1)-c1nnc(COCc3ccccc3)n1Cc1c(-c3ncco3)ncn1-2` [Compound 350] cannot be ordered by Ki: less than 0.1 µM for the first, less than 0.1 µM for the second.

`COCc1nnc2n1Cc1c(C#CCc3cccc(Cl)c3)ncn1-c1ccc(Cl)cc1-2` [Compound 422] and `COCc1nnc2n1Cc1c(C#CC(=O)c3ccccc3)ncn1-c1ccc(Cl)cc1-2` [Compound 455] cannot be ordered by Ki: less than 0.1 µM for the first, less than 0.1 µM for the second.

Compared with `COc1ccc2c(c1)-n1nnc(-c3ccccc3)c1Cc1c(-c3nc(C)no3)ncn1-2` [Compound 273], `COc1ccc2c(c1)-n1nnc(-c3ccccc3)c1Cc1c(-c3nc(C(C)C)no3)ncn1-2` [Compound 272] is higher in Ki: 0.1 to 1 µM for the first, greater than 1 µM for the second.

`C#Cc1ncn2c1Cn1c(COC(C)C)nnc1-c1cc(Cl)ccc1-2` [Compound 288] and `CCOCc1nnc2n1Cc1c(Br)ncn1-c1ccc(Cl)cc1-2` [Compound 216] cannot be ordered by Ki: less than 0.1 µM for the first, less than 0.1 µM for the second.

Compared with `COCc1nnc2n1Cc1c(-c3nc(C)no3)ncn1-c1ccc(-c3cccnc3)cc1-2` [Compound 469], `COc1ccc2c(c1)-c1nnc(COc3ccccc3)n1Cc1c(-c3nc(C)no3)ncn1-2` [Compound 118] is lower in Ki: 0.1 to 1 µM for the first, less than 0.1 µM for the second. The second binds more tightly here.

First: C#Cc1ncn2c1Cc1c(C(=O)c3ccc(F)cc3)nnn1-c1cc(OC)ccc1-2 [Compound 218]
Second: C#Cc1ncn2c1Cc1c(C(=O)c3ccc(Cl)cc3)nnn1-c1cc(OC)ccc1-2 [Compound 219]
The Ki of the first is lower: less than 0.1 µM for the first, 0.1 to 1 µM for the second. The first binds more tightly here.

First: COCc1nnn2c1Cc1c(C3=N[C@@H](C)CO3)ncn1-c1ccc(OC)cc1-2 [Compound 298]
Second: COc1ccc2c(c1)-n1nnc(COc3ccccc3F)c1Cc1c(-c3noc(C)n3)ncn1-2 [Compound 181]
The Ki of the first is higher: 0.1 to 1 µM for the first, less than 0.1 µM for the second.

`COc1ccc2c(c1)-c1nnc(COc3ccccc3)n1Cc1c(C#N)ncn1-2` [Compound 122] and `N#Cc1ncn2c1Cn1c(COc3ccccc3)nnc1-c1cc(Cl)ccc1-2` [Compound 197] cannot be ordered by Ki: less than 0.1 µM for the first, less than 0.1 µM for the second.

`Fc1ccc2c(c1)-n1cnc(Br)c1Cc1c(Cc3ccccc3)nnn1-2` [Compound 229] and `C=Cc1ncn2c1Cc1c(Cc3ccc(C)cc3)nnn1-c1cc(OC)ccc1-2` [Compound 221] cannot be ordered by Ki: greater than 1 µM for the first, greater than 1 µM for the second.

`CCOC(=O)c1ncn2c1Cn1c(COC)nnc1-c1cc(OC)ccc1-2` [Compound 103] and `CCOC(=O)c1ncn2c1Cc1c(C)nnn1-c1cc(OC)ccc1-2` [Compound 1] cannot be ordered by Ki: less than 0.1 µM for the first, less than 0.1 µM for the second.

`COCc1nnc2n1Cc1c(-c3nc(-c4ccccc4F)co3)ncn1-c1ccc(Cl)cc1-2` [Compound 323] and `CCOCc1nnc2n1Cc1c(C3=N[C@@H](c4ccccc4F)CO3)ncn1-c1ccc(Cl)cc1-2` [Compound 322] cannot be ordered by Ki: less than 0.1 µM for the first, less than 0.1 µM for the second.

`CC(C)c1coc(-c2ncn3c2Cc2cnnn2-c2cc(Cl)ccc2-3)n1` [Compound 387] and `Cc1ccccc1C#Cc1ncn2c1Cc1cnnn1-c1cc(Cl)ccc1-2` [Compound 396] cannot be ordered by Ki: less than 0.1 µM for the first, less than 0.1 µM for the second.

Going from `CCc1nc(-c2ncn3c2Cc2c(Cc4ccc(F)cc4)nnn2-c2cc(OC)ccc2-3)no1` [Compound 195] to `COc1ccc2c(c1)-n1nncc1Cc1c(-c3nc(-c4cccc(C(F)(F)F)c4)co3)ncn1-2` [Compound 389], the Ki rises from less than 0.1 µM to greater than 1 µM. The first binds more tightly here.

`COCc1nnc2n1Cc1c(-c3nc(C)no3)ncn1-c1ccc(C(F)(F)F)cc1-2` [Compound 459] and `COc1ccc2c(c1)-c1nnc(COc3ccccc3)n1Cc1c(-c3noc(C(C)C)n3)ncn1-2` [Compound 171] cannot be ordered by Ki: less than 0.1 µM for the first, less than 0.1 µM for the second.

First: FC(F)c1ncn2c1Cn1c(COc3ccccc3)nnc1-c1cc(Cl)ccc1-2 [Compound 200]
Second: Clc1ccc2c(c1)-c1nnc(COc3ccccc3)n1Cc1c(Br)ncn1-2 [Compound 202]
The Ki of the first is higher: 0.1 to 1 µM for the first, less than 0.1 µM for the second.

`COc1ccc2c(c1)-n1nncc1Cc1c(C#Cc3ccc(OC(F)(F)F)cc3)ncn1-2` [Compound 412] and `COc1ccc2c(c1)-n1nncc1Cc1c(C#Cc3ccc(C(F)(F)F)cc3)ncn1-2` [Compound 406] cannot be ordered by Ki: less than 0.1 µM for the first, less than 0.1 µM for the second.

`CCOC(=O)c1ncn2c1Cc1c(C#Cc3ccccc3)nnn1-c1cc(OC)ccc1-2` [Compound 318] and `COc1ccc2c(c1)-n1nnc(C(=O)N3CCCC3)c1Cc1c(Br)ncn1-2` [Compound 248] fall in the same range of Ki: 0.1 to 1 µM for the first, 0.1 to 1 µM for the second.

Same assay, conditions: inhibition of [3H]Ro15-1788 binding; reported as ranges

`COCc1nnc2n1Cc1c(COc3ccccc3F)ncn1-c1ccc(Cl)cc1-2` [Compound 433] and `COCc1nnc2n1Cc1c(COCc3ccccc3)ncn1-c1ccc(Cl)cc1-2` [Compound 430] cannot be ordered by Ki: greater than 1 µM for the first, greater than 1 µM for the second.

Work on `COCc1nnc2n1Cc1c(COCc3cccc(F)c3)ncn1-c1ccc(Cl)cc1-2` [Compound 432] yielded a Ki greater than 1 µM.
